Earlier results as cited in patent US6346634B1, “Chemical compound containing a superoxide scavenger and an organic nitrate or nitrite moiety” (Teijin Limited, priority 1999, dated 2002).

Target: XO (Homo sapiens, UniProt P47989)
Conditions: inhibition of superoxide-generating NADH oxidase activity

Sequence of XO (P47989 whole entry): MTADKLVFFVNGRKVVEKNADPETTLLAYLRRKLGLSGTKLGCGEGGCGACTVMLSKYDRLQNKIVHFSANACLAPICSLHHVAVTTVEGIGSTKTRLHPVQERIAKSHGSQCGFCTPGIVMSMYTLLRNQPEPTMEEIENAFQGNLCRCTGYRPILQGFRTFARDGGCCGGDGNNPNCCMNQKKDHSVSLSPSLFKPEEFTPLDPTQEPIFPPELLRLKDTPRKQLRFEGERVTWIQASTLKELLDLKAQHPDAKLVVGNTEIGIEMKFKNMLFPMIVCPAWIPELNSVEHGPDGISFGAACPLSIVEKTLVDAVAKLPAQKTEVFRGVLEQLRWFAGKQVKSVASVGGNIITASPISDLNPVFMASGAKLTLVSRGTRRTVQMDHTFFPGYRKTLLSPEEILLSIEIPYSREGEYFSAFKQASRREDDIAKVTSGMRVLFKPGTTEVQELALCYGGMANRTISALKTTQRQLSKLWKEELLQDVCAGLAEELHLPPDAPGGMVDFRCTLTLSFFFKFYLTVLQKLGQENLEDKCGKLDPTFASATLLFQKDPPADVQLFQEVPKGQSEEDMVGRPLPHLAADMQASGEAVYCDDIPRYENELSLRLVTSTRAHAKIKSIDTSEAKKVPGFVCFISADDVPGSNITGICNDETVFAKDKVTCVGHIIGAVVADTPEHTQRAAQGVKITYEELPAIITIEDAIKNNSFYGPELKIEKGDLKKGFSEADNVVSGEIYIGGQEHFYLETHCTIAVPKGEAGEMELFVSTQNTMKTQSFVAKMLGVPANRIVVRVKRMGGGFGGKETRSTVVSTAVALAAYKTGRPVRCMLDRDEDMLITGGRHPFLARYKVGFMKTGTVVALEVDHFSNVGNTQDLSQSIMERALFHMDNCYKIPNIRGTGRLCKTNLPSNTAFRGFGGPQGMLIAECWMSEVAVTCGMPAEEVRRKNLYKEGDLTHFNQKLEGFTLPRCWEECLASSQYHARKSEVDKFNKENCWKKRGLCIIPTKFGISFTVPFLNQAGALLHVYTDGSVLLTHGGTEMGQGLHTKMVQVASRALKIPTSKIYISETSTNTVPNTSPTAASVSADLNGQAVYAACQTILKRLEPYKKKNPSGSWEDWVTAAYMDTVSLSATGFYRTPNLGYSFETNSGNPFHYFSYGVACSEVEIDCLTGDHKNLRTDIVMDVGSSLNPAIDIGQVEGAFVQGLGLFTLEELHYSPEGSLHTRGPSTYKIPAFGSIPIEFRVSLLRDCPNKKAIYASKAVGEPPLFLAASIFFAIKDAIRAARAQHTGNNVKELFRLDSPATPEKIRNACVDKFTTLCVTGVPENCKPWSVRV

Structure (SMILES)	NADH-oxidizing activity of XO
COc1cc(-c2cnn3c(=O)nc[n-]c23)ccc1[S+]([O-])c1ccccc1.[Na+] (centres unmarked) [BOF-4272]	not suppressible
O=c1[nH]c(=O)c2c[nH]nc2[nH]1 [oxypurinol]	not suppressible
Nc1c(-c2cccc(C(F)(F)F)c2)nsc1C(=O)O [Amfiutizole]	not suppressible
Oc1ncnc2[nH]ncc12 [allopurinol]	not suppressible
c1ccc2c(c1)[I+]c1ccccc1-2 [diphenyleneiodonium]	blocked
